Measurements published in ChEMBL document CHEMBL1201862, “PubChem BioAssay data set” (2004).
Several values for one entry are separate records, joined by “and”; a condition that tells them apart may be missing. Equal values may be shown once.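 Results reflect a 48-hour exposure of cells in 96-well plates to compound at five concentrations. Abbreviation: GI50, concentration required for 50% inhibition of growth.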 Activity calls are given as the source filed them. Cut-off read from the data, not from the text of the source: active = GI50 up to about 1.1 µM and inactive = higher.

Tests used:
Test in all cases: DTP human tumour cell line panel, 48 h
786-0 = tested on: 786-0
A549 = tested on: A549
ACHN = tested on: ACHN
CAKI-1 = tested on: CAKI-1
CCRF-CEM = tested on: CCRF-CEM
COLO 205 = tested on: COLO 205
DLD-1 = tested on: DLD-1
EKVX = tested on: EKVX
HCC 2998 = tested on: HCC 2998
HCT-116 = tested on: HCT-116
HCT-15 = tested on: HCT-15
HL-60 = tested on: HL-60
HOP-18 = tested on: HOP-18
HOP-62 = tested on: HOP-62
HT-29 = tested on: HT-29
IGROV-1 = tested on: IGROV-1
K562 = tested on: K562
KM-20L2 = tested on: KM-20L2
KM12 = tested on: KM12
LOX IMVI = tested on: LOX IMVI
LXFL 529 = tested on: LXFL 529
M14 = tested on: M14
M19-MEL = tested on: M19-MEL
MOLT-4 = tested on: MOLT-4
Malme-3M = tested on: Malme-3M
NCI-H226 = tested on: NCI-H226
NCI-H23 = tested on: NCI-H23
NCI-H460 = tested on: NCI-H460
NCI-H522 = tested on: NCI-H522
OVCAR-3 = tested on: OVCAR-3
OVCAR-4 = tested on: OVCAR-4
OVCAR-5 = tested on: OVCAR-5
OVCAR-8 = tested on: OVCAR-8
RPMI-8226 = tested on: RPMI-8226
RXF 393 = tested on: RXF 393
RXF 631 = tested on: RXF 631
SF-268 = tested on: SF-268
SF-295 = tested on: SF-295
SF-539 = tested on: SF-539
SK-MEL-28 = tested on: SK-MEL-28
SK-MEL-2 = tested on: SK-MEL-2
SK-MEL-5 = tested on: SK-MEL-5
SK-OV-3 = tested on: SK-OV-3
SN12C = tested on: SN12C
SNB-19 = tested on: SNB-19
SNB-75 = tested on: SNB-75
SNB-78 = tested on: SNB-78
SR = tested on: SR
SW-620 = tested on: SW-620
U-251 = tested on: U-251
UACC-257 = tested on: UACC-257
UACC-62 = tested on: UACC-62
UO-31 = tested on: UO-31
A498 = tested on: A498
DMS-114 = tested on: DMS-114
DMS-273 = tested on: DMS-273
HOP-92 = tested on: HOP-92
TK-10 = tested on: TK-10
XF498 = tested on: XF498
BT-549 = tested on: BT-549
DU-145 = tested on: DU-145
Hs-578T = tested on: Hs-578T
MCF7 = tested on: MCF7
MDA-MB-231 = tested on: MDA-MB-231
MDA-MB-435 = tested on: MDA-MB-435
MDA-N = tested on: MDA-N
NCI/ADR-RES = tested on: NCI/ADR-RES
PC-3 = tested on: PC-3
T47D = tested on: T47D

Measured: GI50

COc1ccc(-c2onc(-c3c(C)cc(C)cc3C)c2C2=NCCN2)cc1
40.3 µM: HCT-15
inactive: 786-0 31.1 µM | A549 74.5 µM | ACHN 86.3 µM | CAKI-1 21.1 µM | CCRF-CEM 34 µM | COLO 205 20.4 µM | DLD-1 74 µM | EKVX 70 µM | HCC 2998 44.1 µM | HCT-116 20.4 µM | HL-60 16.4 µM | HOP-18 10.9 µM | HOP-62 59.2 µM | HT-29 25.5 µM | IGROV-1 > 100 µM | K562 28.2 µM | KM-20L2 28.3 µM | KM12 44.5 µM | LOX IMVI 30.1 µM | LXFL 529 > 100 µM | M14 19.5 µM | M19-MEL 86.5 µM | MOLT-4 39.8 µM | Malme-3M 33.3 µM | NCI-H226 17.8 µM | NCI-H23 > 100 µM | NCI-H460 28.8 µM | NCI-H522 > 10 µM | OVCAR-3 > 10 µM | OVCAR-4 > 100 µM | OVCAR-5 > 100 µM | OVCAR-8 34.8 µM | RPMI-8226 29 µM | RXF 393 39.2 µM | RXF 631 70.6 µM | SF-268 36.7 µM | SF-295 17.6 µM | SF-539 20 µM | SK-MEL-28 22.8 µM | SK-MEL-2 48.2 µM | SK-MEL-5 17.2 µM | SK-OV-3 14.2 µM | SN12C 48.6 µM | SNB-19 33.9 µM | SNB-75 84.9 µM | SNB-78 35.2 µM | SR 32.2 µM | SW-620 47.2 µM | U-251 18.9 µM | UACC-257 18.7 µM | UACC-62 36.3 µM | UO-31 17.1 µM

O=C1CCCCC1S(=O)(=O)c1ccccc1 (stereo unspecified)
inactive: 786-0 > 100 µM | A498 > 100 µM | A549 > 100 µM | ACHN > 100 µM | CAKI-1 > 100 µM | CCRF-CEM > 100 µM | COLO 205 > 100 µM | DLD-1 > 100 µM | DMS-114 > 100 µM | DMS-273 > 100 µM | EKVX > 100 µM | HCC 2998 > 100 µM | HCT-116 > 100 µM | HL-60 > 100 µM | HOP-18 > 100 µM | HOP-62 > 100 µM | HOP-92 > 100 µM | HT-29 > 100 µM | IGROV-1 > 100 µM | K562 > 100 µM | KM-20L2 > 100 µM | KM12 > 100 µM | LOX IMVI > 100 µM | LXFL 529 > 100 µM | M14 > 100 µM | M19-MEL > 100 µM | MOLT-4 > 100 µM | Malme-3M > 100 µM | NCI-H226 > 100 µM | NCI-H23 > 100 µM | NCI-H460 > 100 µM | NCI-H522 > 100 µM | OVCAR-3 > 100 µM | OVCAR-4 > 100 µM | OVCAR-5 > 100 µM | OVCAR-8 > 100 µM | RPMI-8226 > 100 µM | RXF 393 > 100 µM | SF-268 > 100 µM | SF-295 > 100 µM | SF-539 > 100 µM | SK-MEL-28 > 100 µM | SK-MEL-2 > 100 µM | SK-MEL-5 > 100 µM | SK-OV-3 > 100 µM | SN12C > 100 µM | SNB-19 > 100 µM | SNB-75 > 100 µM | SNB-78 > 100 µM | SR > 100 µM | SW-620 > 100 µM | TK-10 > 100 µM | U-251 > 100 µM | UACC-257 > 100 µM | UACC-62 > 100 µM | UO-31 > 100 µM | XF498 > 100 µM
> 100 µM: HCT-15

O=C1C(Br)=C(Br)C(=O)c2ccccc21 [2,3-Dibromo-1,4-naphthoquinone]
inactive: 786-0 18.3 µM and 9.77 µM | A549 13.6 µM | BT-549 4.61 µM | CAKI-1 6.34 µM | DLD-1 15.2 µM and 18.5 µM | DU-145 18.7 µM | HCC 2998 21.7 µM and 19.1 µM | HCT-116 17.9 µM and 12.2 µM | HL-60 2.7 µM | HOP-18 20.1 µM | HOP-62 18.5 µM and 21.5 µM | Hs-578T 4.98 µM | KM-20L2 30.2 µM and 15.1 µM | KM12 19.6 µM and 12.8 µM | M14 15.1 µM and 8.77 µM | MCF7 17.5 µM | MDA-MB-231 5.19 µM | MDA-MB-435 7.98 µM | MDA-N 3.84 µM | NCI/ADR-RES 22.2 µM | OVCAR-4 17.1 µM and 11.1 µM | OVCAR-5 20.5 µM and 10.6 µM | PC-3 17.5 µM | RPMI-8226 3.01 µM | RXF 631 5.94 µM | SK-MEL-2 19.6 µM and 10.4 µM | SK-MEL-5 10.5 µM | SR 2.2 µM | T47D 3.5 µM | TK-10 17.1 µM and 12.7 µM | UACC-62 16.7 µM and 9.71 µM
17.2 µM and 11.9 µM: HCT-15

CN1CCCC2(CCCc3ccccc32)C1 (stereo unspecified)
> 100 µM: HCT-15
inactive: 786-0 > 100 µM | A498 > 100 µM | A549 > 100 µM | ACHN > 100 µM | CAKI-1 > 100 µM | CCRF-CEM > 100 µM | COLO 205 > 100 µM | DLD-1 > 100 µM | DMS-114 > 100 µM | DMS-273 > 100 µM | EKVX > 100 µM | HCC 2998 > 100 µM | HCT-116 > 100 µM | HL-60 > 100 µM | HOP-62 > 100 µM | HOP-92 69.5 µM | HT-29 > 100 µM | IGROV-1 > 100 µM | K562 > 100 µM | KM-20L2 > 100 µM | KM12 > 100 µM | LOX IMVI > 100 µM | LXFL 529 > 100 µM | M14 > 100 µM | M19-MEL > 100 µM | MOLT-4 > 100 µM | Malme-3M > 100 µM | NCI-H226 > 100 µM | NCI-H23 > 100 µM | NCI-H460 > 100 µM | NCI-H522 > 100 µM | OVCAR-3 > 100 µM | OVCAR-4 > 100 µM | OVCAR-5 > 100 µM | OVCAR-8 > 100 µM | RPMI-8226 > 100 µM | RXF 631 > 100 µM | SF-268 > 100 µM | SF-295 > 100 µM | SF-539 > 100 µM | SK-MEL-28 > 100 µM | SK-MEL-2 > 100 µM | SK-MEL-5 > 100 µM | SK-OV-3 > 100 µM | SN12C > 100 µM | SNB-75 > 100 µM | SNB-78 > 100 µM | SR > 100 µM | SW-620 > 100 µM | TK-10 > 100 µM | U-251 > 100 µM | UACC-257 > 100 µM | UACC-62 > 100 µM | UO-31 80.2 µM

CCOC(=O)C1=C(Nc2ccc(Cl)c(Cl)c2)OC/C1=N\NC(=O)Cc1ccccc1
inactive: 786-0 > 100 µM | A498 > 100 µM | A549 > 100 µM | CAKI-1 > 100 µM | CCRF-CEM > 100 µM | COLO 205 > 100 µM | DLD-1 > 100 µM | DMS-114 > 100 µM | DMS-273 > 100 µM | EKVX > 100 µM | HCC 2998 > 100 µM | HCT-116 99.8 µM | HL-60 > 100 µM | HOP-18 87.7 µM | HOP-62 > 100 µM | IGROV-1 > 100 µM | K562 89.1 µM | KM-20L2 > 100 µM | KM12 > 100 µM | LOX IMVI > 100 µM | LXFL 529 > 100 µM | M14 > 100 µM | M19-MEL > 100 µM | MOLT-4 61.1 µM | Malme-3M > 100 µM | NCI-H226 > 100 µM | NCI-H23 > 100 µM | NCI-H460 > 100 µM | NCI-H522 > 100 µM | OVCAR-3 > 100 µM | OVCAR-4 > 100 µM | OVCAR-5 > 100 µM | OVCAR-8 > 100 µM | RPMI-8226 68.7 µM | RXF 393 > 100 µM | SF-268 > 100 µM | SF-295 > 100 µM | SF-539 > 100 µM | SK-MEL-28 > 100 µM | SK-MEL-2 > 100 µM | SK-MEL-5 > 100 µM | SK-OV-3 > 100 µM | SN12C > 100 µM | SNB-19 > 100 µM | SNB-75 > 100 µM | SNB-78 > 100 µM | SW-620 > 100 µM | TK-10 > 100 µM | U-251 > 100 µM | UACC-257 63.7 µM | UACC-62 > 100 µM | UO-31 56.2 µM | XF498 > 100 µM
